In patent US6399542B1, “Alkoxyimino-substituted bicyclic compounds compositions containing the same and method of making such compounds” (Agro-Kanesho Co., Ltd., priority 1997, dated 2002):
Read-outs that look alike come from different tables or passages of the source.

Columns and labels:
Chochliobolus miyabeanus = experiment: Effect on Rice brown spot (preventive spray test); format: in vivo; conditions: 7 days after inoculation
Rhizoctonia solani = experiment: Effect on Rice sheath blight (preventive spray test); conditions: 10 days after inoculation
Description: An emulsion of a compound of the present invention prepared in Preparation Example 2 was diluted with water and uniformly sprayed on 5 rice plant seedlings (variety: Koshihikari) in 4.5-leaf stage in each plastic pot having a diameter of 6 cm, with a spray gun. One day after the spraying, the seedlings were bundled at the second sheath with a string. Colonies of Rhizoctonia solani previously cultured in PSA culture medium were bored with a cork borer to obtain pieces having a diameter of 4 mm. The piece was put in the bundle, and kept in a high-humidity room at 25° C. until the examination. Ten days after the inoculation, the degree of the disease was examined, and the preventive rate (effect of inhibiting the disease) was calculated on the basis of the following standard:
Preventive rate=[1-D′/C′]×100
C′: Severity in untreated section
D′: Severity in treated section.

[1] = system: Psecidoperonospora cubensis; experiment: Effect on Cucumber downy mildew (preventive spray test); format: in vivo; conditions: 7 days after inoculation
Puccinia recondita = experiment: Effect on Wheat brown rust (preventive spray test); format: in vivo; conditions: 7 days after inoculation
Pyricularia oryzae = format: in vivo; conditions: Rice blast, 7 days after inoculation
Erysiphe graminis = experiment: Effects on Barley powdery mildew (preventive spray test); format: in vivo; conditions: lesions counted seven days after inoculation
Botrytis cinerea = experiment: Effect on Cucumber gray mold (cotyledon paper disc test); format: in vivo; conditions: 3 days after inoculation
Phytophthora infestans = format: in vivo; conditions: Tomato late blight, 5 days after inoculation
Puccinia recondite = experiment: Penetration and translocation in wheat leaves (covered leaf tip, brown rust); format: in vivo
[2] = conc. of active ingredient 20 ppm
[3] = conc. of active ingredient 100 ppm
[4] = conc. of active ingredient 4 ppm
[5] = conc. of active ingredient 200 ppm

Row | SMILES | melting point [°C] | Preventive rate (%) (Chochliobolus miyabeanus; [2]) | Preventive rate (%) (Chochliobolus miyabeanus; [3]) | Preventive rate (%) [1, 2] [%] | Preventive rate (%) [1, 3] [%] | Preventive rate (%) (Puccinia recondita; [2]) | Preventive rate (%) (Puccinia recondita; [3]) | Preventive rate (%) (Pyricularia oryzae; [2]) | Preventive rate (%) (Pyricularia oryzae; [3]) | Preventive rate (%) (Erysiphe graminis; [2]) | Preventive rate (%) (Erysiphe graminis; [3]) | Preventive rate (%) (Botrytis cinerea; [2]) | Preventive rate (%) (Botrytis cinerea; [3]) | Preventive rate (%) (Phytophthora infestans; [4]) | Preventive rate (%) (Phytophthora infestans; [2]) | Preventive rate (%) (Phytophthora infestans; [3]) | Number of lesions formed within the mark to the tip (Puccinia recondite; [3]) | Preventive rate (%) (Puccinia recondite; [3]) | Rate of the translocation perfect preventive conc. (%) (Puccinia recondite; [3]) | Preventive rate (%) (Erysiphe graminis; [4]) | also measured
1 | CON=C1COc2cc(OCc3ccccc3/C(=N\OC)C(=O)OC)ccc21 [a-4, (E) methyl methoxyimino-[2-(3-methoxyimino-2,3-dihydrobenzofuran-6-yloxymethyl)-phenyl]acetate] | 108 to 110 | 75 | 80 | 94 | 94 | 94 | 98 | 86 | 90 | 93 | 100 | – | – | – | – | – | – | – | – | – | Preventive rate (%) (Rhizoctonia solani; [2]): 93%; Preventive rate (%) (Rhizoctonia solani; [3]): 92%
2 | CCON=C1COc2cc(OCc3ccccc3/C(=N\OC)C(=O)NC)ccc21 [a-37, (E) methoxyimino-[2-(3-ethoxyimino-2,3-dihydrobenzofuran-6-yloxymethyl)-phenyl]-N-methyl-acetamide] | 110 to 113 | – | – | 100 | 100 | 99 | 100 | – | – | – | – | 100 | 100 | – | – | – | – | – | – | – | –
3 | CNC(=O)C(=NOC)c1ccccc1COc1cc2c(cc1C)C(=NOC)CC2 [e-27] | – | 99 | 99 | 100 | 100 | 100 | 100 | – | – | 99 | 100 | – | – | 100 | 100 | 100 | 0 | 100 | 100 | 99 | Preventive rate (%) (Chochliobolus miyabeanus; [4]): 96%; Preventive rate (%) [1, 4]: 100%; Preventive rate (%) (Puccinia recondita; [4]): 100%
4 | CNC(=O)C(=NOC)c1ccccc1COc1ccc2c(c1C)CCC2=NOC [e-16] | – | – | – | 100 | 100 | 100 | 100 | – | – | 100 | 100 | – | – | – | 100 | 100 | 0 | 100 | 100 | 100 | –
5 | CNC(=O)/C(=N/OC)c1ccccc1COc1cc2c(cc1C)C(=NOC)CO2 [a-27] | – | 77 | 83 | – | – | 100 | 100 | 77 | 82 | 100 | 100 | – | – | 95 | 95 | 95 | – | – | – | 100 | Number of lesions formed within the mark to the tip (Puccinia recondite; [5]): 0; Preventive rate (%) (Puccinia recondite; [5]): 100%; Rate of the translocation perfect preventive conc. (%) (Puccinia recondite; [5]): 100%; Preventive rate (%) (Puccinia recondita; [4]): 98%
6 | COC=C(C(=O)OC)c1ccccc1COc1ccc2c(c1C)OCCC2=NOC [c-13] | – | 93 | 100 | 100 | 100 | 100 | 100 | 94 | 100 | 100 | 100 | 49 | 58 | 95 | 100 | 100 | 0 | 100 | 100 | 100 | Preventive rate (%) (Chochliobolus miyabeanus; [4]): 82%; Preventive rate (%) [1, 4]: 100%; Preventive rate (%) (Puccinia recondita; [4]): 100%
7 | CON=C1COc2cc(OCc3ccccc3N(OC)C(=O)OC)ccc21 [a-7, methyl N-[2-(3-methoxyimino-2,3-dihydro-benzofuran-6-yloxymethyl)-phenyl]-N-methoxycarbamate] | 102 to 103 | – | – | 94 | 97 | 99 | 100 | – | – | – | – | 56 | 97 | – | – | – | – | – | – | – | –
8 | CNC(=O)N(OC)c1ccccc1COc1ccc2c(c1)OCC2=NOC [a-8, N-[2-(3-methoxyimino-2,3-dihydrobenzofuran-6-yloxymethyl)phenyl]-N-methoxy-N′-methylurea] | 109 to 112 | – | – | 88 | 94 | 99 | 100 | – | – | – | – | – | – | – | – | – | – | – | – | – | Preventive rate (%) [1, 4]: 75%
